For 1 compound, Efficacy, Activity and EC50 results are on record in ChEMBL document CHEMBL4184249, “Structural development of tetrachlorophthalimides as liver X receptor β (LXRβ)-selective agonists with improved aqueous solubility” (Bioorg Med Chem Lett, 2018).

For experiment [1], the target named is T1, Bile acid receptor (Homo sapiens) (UniProt Q96RI1).
T1 sequence (whole entry): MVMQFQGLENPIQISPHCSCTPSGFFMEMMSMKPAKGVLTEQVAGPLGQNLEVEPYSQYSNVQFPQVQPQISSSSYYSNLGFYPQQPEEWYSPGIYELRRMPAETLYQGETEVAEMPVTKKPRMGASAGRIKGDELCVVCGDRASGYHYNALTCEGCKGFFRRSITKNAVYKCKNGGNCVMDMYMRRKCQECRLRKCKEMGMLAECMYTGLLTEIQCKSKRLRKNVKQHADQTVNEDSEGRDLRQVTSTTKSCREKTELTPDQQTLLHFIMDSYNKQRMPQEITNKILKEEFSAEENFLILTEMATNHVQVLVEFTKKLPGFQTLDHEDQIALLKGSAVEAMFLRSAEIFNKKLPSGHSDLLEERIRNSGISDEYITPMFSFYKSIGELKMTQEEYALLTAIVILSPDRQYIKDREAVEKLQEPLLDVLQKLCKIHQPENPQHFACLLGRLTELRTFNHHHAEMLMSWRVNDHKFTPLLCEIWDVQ
In words: Agonist activity at GAL4-tagged FXR (unknown origin) expressed in HEK293 cells co-expressing CMX-beta-galactosidase at 0.3 to 30 uM incubated for 16 hrs by luciferase reporter gene assay. The experiment is classed as cell-based.

Experiment [2] deals with T2, Retinoic acid receptor alpha (Homo sapiens) (UniProt P10276).
T2 sequence (whole entry): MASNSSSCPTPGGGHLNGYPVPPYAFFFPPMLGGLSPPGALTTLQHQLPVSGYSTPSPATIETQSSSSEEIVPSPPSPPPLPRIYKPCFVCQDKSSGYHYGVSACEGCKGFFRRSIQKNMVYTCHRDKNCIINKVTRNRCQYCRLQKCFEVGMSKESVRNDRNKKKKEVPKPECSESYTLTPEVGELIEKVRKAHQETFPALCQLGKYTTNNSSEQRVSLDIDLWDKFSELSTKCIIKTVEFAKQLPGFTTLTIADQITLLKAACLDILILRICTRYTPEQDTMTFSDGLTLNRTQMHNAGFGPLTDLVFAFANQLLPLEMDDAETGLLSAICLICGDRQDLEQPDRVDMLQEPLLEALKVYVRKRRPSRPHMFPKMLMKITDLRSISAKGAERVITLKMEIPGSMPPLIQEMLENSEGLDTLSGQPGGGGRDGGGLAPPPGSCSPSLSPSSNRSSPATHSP
Description: Agonist activity at GAL4-tagged RARalpha (unknown origin) expressed in HEK293 cells co-expressing CMX-beta-galactosidase at 0.3 to 30 uM incubated for 16 hrs by luciferase reporter gene assay. The experiment is classed as cell-based.

Experiment [3] deals with T3, Retinoic acid receptor RXR-gamma (Homo sapiens) (UniProt P48443).
T3 sequence (whole entry): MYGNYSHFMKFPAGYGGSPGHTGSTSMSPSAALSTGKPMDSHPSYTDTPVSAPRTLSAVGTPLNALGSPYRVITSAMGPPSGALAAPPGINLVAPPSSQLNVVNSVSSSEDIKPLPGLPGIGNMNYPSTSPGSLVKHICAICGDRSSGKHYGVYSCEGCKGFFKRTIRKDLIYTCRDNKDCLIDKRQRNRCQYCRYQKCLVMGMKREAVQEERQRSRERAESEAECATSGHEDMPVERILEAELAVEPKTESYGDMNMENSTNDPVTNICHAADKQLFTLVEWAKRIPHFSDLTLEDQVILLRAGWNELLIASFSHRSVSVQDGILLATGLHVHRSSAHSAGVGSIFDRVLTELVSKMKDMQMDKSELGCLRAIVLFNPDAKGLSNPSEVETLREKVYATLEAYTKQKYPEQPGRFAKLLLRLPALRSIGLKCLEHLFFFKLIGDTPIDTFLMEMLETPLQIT
In words: Agonist activity at GAL4-tagged RXRgamma (unknown origin) expressed in HEK293 cells co-expressing CMX-beta-galactosidase at 0.3 to 30 uM incubated for 16 hrs by luciferase reporter gene assay. The experiment is classed as cell-based.

The target in experiment [4] is T4, Oxysterols receptor LXR-beta (Homo sapiens, UniProt P55055). Description: Agonist activity at LXRbeta ligand-binding domain (unknown origin) incubated for 1.5 hrs using fluorescein-labeled coactivator peptide by TR-FRET competitive binding assay.
Experiment [5] addresses T4, Oxysterols receptor LXR-beta. Description: Agonist activity at LXRbeta ligand-binding domain (unknown origin) incubated for 1.5 hrs using fluorescein-labeled coactivator peptide by TR-FRET competitive binding assay.
Experiment [6] deals with T5, Oxysterols receptor LXR-alpha (Mus musculus) (UniProt Q9Z0Y9).
T5 sequence (whole entry): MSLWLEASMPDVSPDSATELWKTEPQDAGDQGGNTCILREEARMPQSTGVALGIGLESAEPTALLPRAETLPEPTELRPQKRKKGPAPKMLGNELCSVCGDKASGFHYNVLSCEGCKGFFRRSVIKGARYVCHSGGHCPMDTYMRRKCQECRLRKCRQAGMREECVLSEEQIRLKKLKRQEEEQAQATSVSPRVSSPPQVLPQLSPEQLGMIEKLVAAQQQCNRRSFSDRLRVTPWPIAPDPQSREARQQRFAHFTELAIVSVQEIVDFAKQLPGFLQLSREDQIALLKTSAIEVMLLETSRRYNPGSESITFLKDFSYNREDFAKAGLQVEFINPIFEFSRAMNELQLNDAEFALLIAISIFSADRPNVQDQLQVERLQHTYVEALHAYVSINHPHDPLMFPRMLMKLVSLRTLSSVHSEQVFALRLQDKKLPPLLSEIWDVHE
In words: Agonist activity at mouse LXRalpha expressed in HEK293 cells co-expressing CMX-beta-galactosidase at 30 uM incubated for 16 hrs by luciferase reporter gene assay. The experiment is classed as cell-based.

Experiment [7] addresses T6, Retinoic acid receptor RXR-beta (Homo sapiens) (UniProt P28702).
T6 sequence (whole entry): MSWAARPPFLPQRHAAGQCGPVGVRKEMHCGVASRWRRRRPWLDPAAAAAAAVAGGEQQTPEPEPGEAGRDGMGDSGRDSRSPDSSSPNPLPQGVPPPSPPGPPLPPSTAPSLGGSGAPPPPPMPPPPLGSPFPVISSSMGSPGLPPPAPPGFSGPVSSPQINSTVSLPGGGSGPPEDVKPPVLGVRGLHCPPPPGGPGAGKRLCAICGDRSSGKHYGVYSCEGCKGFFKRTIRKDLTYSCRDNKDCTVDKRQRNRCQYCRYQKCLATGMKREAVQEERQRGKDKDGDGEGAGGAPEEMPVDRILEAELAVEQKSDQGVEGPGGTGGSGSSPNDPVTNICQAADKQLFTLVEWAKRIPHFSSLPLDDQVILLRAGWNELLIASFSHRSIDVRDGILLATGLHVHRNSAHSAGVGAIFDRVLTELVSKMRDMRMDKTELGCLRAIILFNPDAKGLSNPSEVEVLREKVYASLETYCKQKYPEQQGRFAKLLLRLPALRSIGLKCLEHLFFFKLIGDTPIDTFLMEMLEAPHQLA
Description: Agonist activity at GAL4-tagged RXRbeta (unknown origin) expressed in HEK293 cells co-expressing CMX-beta-galactosidase at 0.3 to 30 uM incubated for 16 hrs by luciferase reporter gene assay. The experiment is classed as cell-based.

The source made the active and inactive calls. The rule behind the calls is not given here.

T4 sequence (P55055 whole entry, looked up, the tested form may be a part): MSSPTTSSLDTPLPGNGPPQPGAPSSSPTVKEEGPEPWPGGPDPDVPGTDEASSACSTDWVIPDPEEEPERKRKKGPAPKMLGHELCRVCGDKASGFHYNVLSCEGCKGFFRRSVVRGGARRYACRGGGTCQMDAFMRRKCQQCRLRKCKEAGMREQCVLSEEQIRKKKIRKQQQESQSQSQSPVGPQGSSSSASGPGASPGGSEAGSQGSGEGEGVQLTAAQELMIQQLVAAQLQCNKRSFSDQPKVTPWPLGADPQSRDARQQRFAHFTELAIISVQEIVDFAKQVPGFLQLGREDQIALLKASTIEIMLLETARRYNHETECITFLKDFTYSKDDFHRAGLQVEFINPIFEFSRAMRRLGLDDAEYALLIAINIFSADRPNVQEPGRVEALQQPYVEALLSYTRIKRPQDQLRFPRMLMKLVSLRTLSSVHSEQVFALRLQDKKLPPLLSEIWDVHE

On to `O=C1c2c(Cl)c(Cl)c(Cl)c(Cl)c2C(=O)N1c1ccccc1/C=C/c1cccs1`, for which the Efficacy in experiment [1] amounted to 9%; in experiment [2] it was 6%. Also, the result in experiment [3], in experiment [6] and in experiment [7] was inactive. Moreover, in experiment [4], the Activity entry is “Dose-dependent effect”. The compound further showed an EC50 in experiment [5] of 40.4 nM.
